Results taken from ChEMBL document CHEMBL1201862, “PubChem BioAssay data set” (2004).
Active and inactive are the calls of the source.

How the values were obtained:
[1] = molecular target: Luciferin 4-monooxygenase (Photinus pyralis, UniProt P08659); assay: inhibition of purified Photinus pyralis luciferase – biochemical, luminescence, dose response (AID 1891)
[2] = Luminescence Cell-Based Dose Confirmation HTS to Identify Inhibitors of Platelet Dense Granule Release. [Related pubchem assays: 1663 (Primary HTS), 1678 (Summary of Project)]; type: functional
[3] = molecular target: T1, Short transient receptor potential channel 4 (Mus musculus, UniProt Q9QUQ5); assay: block of DAMGO-driven TRPC4 calcium entry – cell-based, HEK293 TRPC4/mu-opioid, Fluo-4 calcium, dose response (AID 434942); type: functional;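 also: potency of inhibitors blocking the TRPC4 calcium response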
T1 sequence (Q9QUQ5 whole entry): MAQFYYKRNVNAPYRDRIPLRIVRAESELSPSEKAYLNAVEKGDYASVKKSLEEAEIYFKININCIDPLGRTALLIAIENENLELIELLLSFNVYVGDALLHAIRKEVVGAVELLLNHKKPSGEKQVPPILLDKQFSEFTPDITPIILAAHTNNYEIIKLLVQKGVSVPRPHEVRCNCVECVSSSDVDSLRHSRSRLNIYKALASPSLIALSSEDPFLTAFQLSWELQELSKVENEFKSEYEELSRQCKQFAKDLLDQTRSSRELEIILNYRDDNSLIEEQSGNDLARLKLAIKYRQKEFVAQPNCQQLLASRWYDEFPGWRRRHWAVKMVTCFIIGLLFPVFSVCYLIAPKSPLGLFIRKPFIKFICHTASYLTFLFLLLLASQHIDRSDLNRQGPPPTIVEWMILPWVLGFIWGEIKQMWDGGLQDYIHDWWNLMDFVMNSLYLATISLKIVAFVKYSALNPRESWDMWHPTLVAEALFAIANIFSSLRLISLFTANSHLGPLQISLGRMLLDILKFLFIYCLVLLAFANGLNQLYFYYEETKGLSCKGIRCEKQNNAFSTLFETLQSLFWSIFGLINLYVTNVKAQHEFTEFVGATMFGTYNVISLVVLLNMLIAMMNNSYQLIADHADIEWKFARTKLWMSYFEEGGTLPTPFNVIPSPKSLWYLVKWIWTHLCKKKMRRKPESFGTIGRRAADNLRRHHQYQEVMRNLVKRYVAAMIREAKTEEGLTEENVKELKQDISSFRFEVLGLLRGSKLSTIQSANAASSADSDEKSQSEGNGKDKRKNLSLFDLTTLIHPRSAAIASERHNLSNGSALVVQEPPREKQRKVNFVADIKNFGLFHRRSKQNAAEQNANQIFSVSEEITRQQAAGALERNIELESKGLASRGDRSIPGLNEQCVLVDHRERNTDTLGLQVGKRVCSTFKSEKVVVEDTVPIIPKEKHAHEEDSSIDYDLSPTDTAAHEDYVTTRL

Cytochrome P450 2C19 = Cytochrome P450 2C19 (Homo sapiens, UniProt P33261); assay: Cytochrome panel assay with activity outcomes. Panel member name: p450-cyp2c19 Compounds with AC50 equal or less than 10 uM are considered active; type: functional; settings: read-out: AC50
Cytochrome P450 1A2 = molecular target: T2, Cytochrome P450 1A2 (Homo sapiens, UniProt P05177);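 also: PubChem cytochrome P450 panel assay, CYP1A2 panel member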
T2 sequence (P05177 whole entry): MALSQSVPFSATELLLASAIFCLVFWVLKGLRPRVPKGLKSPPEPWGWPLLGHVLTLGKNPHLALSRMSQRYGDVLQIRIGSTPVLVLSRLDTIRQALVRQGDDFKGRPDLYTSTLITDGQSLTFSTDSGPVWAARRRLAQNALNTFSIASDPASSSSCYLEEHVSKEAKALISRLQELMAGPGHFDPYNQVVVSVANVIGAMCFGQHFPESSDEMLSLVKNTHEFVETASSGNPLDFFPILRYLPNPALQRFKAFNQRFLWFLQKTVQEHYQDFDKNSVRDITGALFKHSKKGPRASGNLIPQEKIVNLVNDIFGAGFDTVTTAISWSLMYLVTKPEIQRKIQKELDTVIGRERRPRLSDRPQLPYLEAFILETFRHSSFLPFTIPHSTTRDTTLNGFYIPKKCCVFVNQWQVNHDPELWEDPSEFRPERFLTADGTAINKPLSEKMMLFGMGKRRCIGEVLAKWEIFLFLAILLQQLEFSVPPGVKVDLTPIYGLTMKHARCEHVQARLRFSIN

Cytochrome P450 2C9 = Cytochrome P450 2C9 (Homo sapiens, UniProt P11712)
[4] = molecular target: Glyceraldehyde-3-phosphate dehydrogenase (Homo sapiens, UniProt P04406)
[5] = NIH-3T3 fibroblast cytotoxicity, dose response, cytotoxicity control, cell-based, fluorescence, Alamar Blue, secondary assay (AID 2327); type: functional;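 also: NIH-3T3 mouse fibroblasts cultured with fluconazole at 8 µg/mL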
[6] = fluconazole-exposed Candida albicans growth modulators – fluorescence, retest, confirmation (AID 2467); type: functional, cell-based
[7] = molecular target: T1, Short transient receptor potential channel 4; assay: calcium entry via TRPC4 opening agents – cell-based, HEK293 TRPC4/mu-opioid, Fluo-4 calcium, dose response (AID 434937); type: functional
[8] = molecular target: T3, Mannose-6-phosphate isomerase (Homo sapiens, UniProt P34949); assay: MPI inhibition at elevated mannose 6-phosphate – biochemical, fluorescence intensity, high mannose 6-phosphate, primary screen (AID 1220)
T3 sequence (P34949 whole entry): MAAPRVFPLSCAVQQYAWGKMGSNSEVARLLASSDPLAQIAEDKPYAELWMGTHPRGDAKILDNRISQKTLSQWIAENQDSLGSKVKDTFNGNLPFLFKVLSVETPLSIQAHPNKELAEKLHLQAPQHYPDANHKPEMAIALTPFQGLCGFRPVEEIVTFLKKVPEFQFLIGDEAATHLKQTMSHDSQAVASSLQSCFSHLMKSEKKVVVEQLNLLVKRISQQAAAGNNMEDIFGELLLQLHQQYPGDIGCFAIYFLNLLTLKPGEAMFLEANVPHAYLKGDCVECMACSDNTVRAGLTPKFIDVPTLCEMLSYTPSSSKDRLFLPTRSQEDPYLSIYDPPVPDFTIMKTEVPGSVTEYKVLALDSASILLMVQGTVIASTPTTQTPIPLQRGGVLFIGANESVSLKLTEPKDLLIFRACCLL

[9] = test system: Streptococcus sp. 'group A'; assay: Streptococcus pyogenes SK(-)GAS viability under kanamycin – luminescence, BacTiterGlo, confirmation, counter-screen for streptokinase expression inhibitor project, dose response (AID 1900); type: functional, organism-based
Streptococcus = assay: GAS UMAA2166 growth inhibition – luminescence, BacTiterGlo, counter-screen for streptokinase expression inhibitor project, dose response (AID 1915); type: functional, organism-based;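 also: potency for reduction of bacterial viability or growth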
[10] = molecular target: Heat shock protein HSP 90-alpha (Homo sapiens, UniProt P07900); type: functional, organism-based
Paired box protein Pax-8 = Paired box protein Pax-8 (Homo sapiens, UniProt Q06710); assay: PAX8 transcriptional activity inhibition in RMG-I – RMG-I cells, luciferase, cherry-pick, dose response (AID 687027); type: functional, cell-based;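 also: luciferase reporter driven by Pax8 target thyroperoxidase promoter measured by SteadyGlo luminescence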
[11] = molecular target: T4, Heat shock factor protein 1 (Mus musculus, UniProt P38532); assay: enhancement of HSF1-driven luciferase signal – cell-based, NIH3T3, luminescence, dose retest, confirmation (AID 435004); type: functional;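 also: stress induced by proteasome inhibitor MG132 added 30 min after compound; luciferase reporter driven by HSF1 response element in NIH3T3 cells; actives raise luminescence as potentiators of the MG132 stress response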
T4 sequence (P38532 whole entry): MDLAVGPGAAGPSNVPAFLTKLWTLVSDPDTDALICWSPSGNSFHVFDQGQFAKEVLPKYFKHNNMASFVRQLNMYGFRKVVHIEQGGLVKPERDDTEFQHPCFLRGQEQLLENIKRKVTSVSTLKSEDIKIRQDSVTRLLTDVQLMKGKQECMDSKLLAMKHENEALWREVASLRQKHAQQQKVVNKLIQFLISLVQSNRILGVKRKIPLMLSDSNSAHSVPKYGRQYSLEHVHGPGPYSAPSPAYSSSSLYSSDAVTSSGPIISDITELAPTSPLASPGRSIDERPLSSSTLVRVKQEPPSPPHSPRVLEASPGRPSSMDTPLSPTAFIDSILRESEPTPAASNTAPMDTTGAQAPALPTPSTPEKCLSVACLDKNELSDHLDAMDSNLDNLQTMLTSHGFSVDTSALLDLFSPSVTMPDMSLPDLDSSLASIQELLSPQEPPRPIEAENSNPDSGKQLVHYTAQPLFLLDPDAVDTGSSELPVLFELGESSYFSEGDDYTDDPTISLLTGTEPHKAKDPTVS

[12] = HIV-1 AD8 envelope cell-cell fusion blockers – cherry-pick, dose response (AID 652062); type: functional, cell-based;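 also: luciferase signal from cell-cell fusion driven by HIV-1 clade B AD8 Env; potency is for inhibitors of fusion seen as a drop in luminescence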
[13] = molecular target: T5, Corticotropin-releasing factor receptor 2/Corticotropin-releasing factor-binding protein (Homo sapiens, UniProt P24387+Q13324); assay: activators of CRF receptor 2 with binding protein – uHTS hits, confirmation (AID 602473); type: functional; settings: read-out: EC50_Mean
T5 sequence (Q13324 whole entry): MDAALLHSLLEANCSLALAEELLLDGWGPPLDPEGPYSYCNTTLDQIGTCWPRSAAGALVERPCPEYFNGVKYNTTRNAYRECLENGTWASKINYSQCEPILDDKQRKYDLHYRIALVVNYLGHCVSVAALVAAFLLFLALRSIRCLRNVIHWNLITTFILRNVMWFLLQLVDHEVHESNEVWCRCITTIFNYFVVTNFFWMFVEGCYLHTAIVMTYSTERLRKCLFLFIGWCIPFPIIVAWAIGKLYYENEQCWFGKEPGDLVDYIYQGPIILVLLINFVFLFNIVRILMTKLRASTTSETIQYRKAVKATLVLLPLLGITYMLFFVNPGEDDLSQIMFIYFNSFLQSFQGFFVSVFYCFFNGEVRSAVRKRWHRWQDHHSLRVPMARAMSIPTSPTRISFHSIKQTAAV
T5 sequence (P24387 whole entry): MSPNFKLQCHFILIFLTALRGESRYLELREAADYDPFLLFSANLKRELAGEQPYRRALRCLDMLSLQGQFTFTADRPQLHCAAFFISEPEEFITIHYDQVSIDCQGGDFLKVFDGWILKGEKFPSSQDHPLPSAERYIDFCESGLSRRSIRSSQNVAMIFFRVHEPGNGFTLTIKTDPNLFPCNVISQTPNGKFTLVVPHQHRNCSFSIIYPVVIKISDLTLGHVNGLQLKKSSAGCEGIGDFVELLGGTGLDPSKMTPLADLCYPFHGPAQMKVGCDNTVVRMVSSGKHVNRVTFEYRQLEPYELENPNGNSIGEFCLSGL

Chain of Glyceraldehyde-3-phosphate dehydrogenase (P04406 whole entry): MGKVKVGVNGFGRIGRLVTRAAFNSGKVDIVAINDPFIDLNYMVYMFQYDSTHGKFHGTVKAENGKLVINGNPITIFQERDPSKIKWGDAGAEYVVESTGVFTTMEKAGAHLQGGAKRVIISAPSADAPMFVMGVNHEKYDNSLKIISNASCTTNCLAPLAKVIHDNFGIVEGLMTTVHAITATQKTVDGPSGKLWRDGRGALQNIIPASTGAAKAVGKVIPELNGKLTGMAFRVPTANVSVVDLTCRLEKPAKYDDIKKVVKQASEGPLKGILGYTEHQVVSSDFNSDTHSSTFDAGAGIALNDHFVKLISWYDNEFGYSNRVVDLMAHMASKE
Chain of Paired box protein Pax-8 (Q06710 whole entry): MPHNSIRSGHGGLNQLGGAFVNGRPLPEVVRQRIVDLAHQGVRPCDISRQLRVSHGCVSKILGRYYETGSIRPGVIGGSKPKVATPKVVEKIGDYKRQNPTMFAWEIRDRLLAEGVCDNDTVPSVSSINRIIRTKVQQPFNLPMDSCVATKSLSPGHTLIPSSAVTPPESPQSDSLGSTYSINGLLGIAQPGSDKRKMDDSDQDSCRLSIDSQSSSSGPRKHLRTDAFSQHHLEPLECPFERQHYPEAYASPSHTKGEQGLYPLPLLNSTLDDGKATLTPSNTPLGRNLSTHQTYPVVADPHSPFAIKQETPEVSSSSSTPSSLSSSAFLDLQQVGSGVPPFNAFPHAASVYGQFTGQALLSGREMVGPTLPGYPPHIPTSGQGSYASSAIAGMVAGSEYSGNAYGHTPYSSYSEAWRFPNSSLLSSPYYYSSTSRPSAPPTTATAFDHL
Chain of Luciferin 4-monooxygenase (P08659 whole entry): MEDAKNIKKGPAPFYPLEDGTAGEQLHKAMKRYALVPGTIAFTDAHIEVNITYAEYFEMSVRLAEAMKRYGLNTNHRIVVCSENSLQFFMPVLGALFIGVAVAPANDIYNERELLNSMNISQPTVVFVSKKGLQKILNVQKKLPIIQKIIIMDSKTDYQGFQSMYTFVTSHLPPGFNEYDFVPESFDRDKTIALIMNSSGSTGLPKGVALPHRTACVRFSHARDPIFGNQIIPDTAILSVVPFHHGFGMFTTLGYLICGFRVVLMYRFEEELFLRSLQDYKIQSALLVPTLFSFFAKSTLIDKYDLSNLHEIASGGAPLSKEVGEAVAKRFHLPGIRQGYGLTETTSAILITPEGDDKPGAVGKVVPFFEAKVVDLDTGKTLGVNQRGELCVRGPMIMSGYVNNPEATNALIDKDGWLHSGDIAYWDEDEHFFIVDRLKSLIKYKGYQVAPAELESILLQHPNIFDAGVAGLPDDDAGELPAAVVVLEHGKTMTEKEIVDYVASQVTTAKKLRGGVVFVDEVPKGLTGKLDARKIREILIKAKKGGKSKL
Chain of Cytochrome P450 2C19 (P33261 whole entry): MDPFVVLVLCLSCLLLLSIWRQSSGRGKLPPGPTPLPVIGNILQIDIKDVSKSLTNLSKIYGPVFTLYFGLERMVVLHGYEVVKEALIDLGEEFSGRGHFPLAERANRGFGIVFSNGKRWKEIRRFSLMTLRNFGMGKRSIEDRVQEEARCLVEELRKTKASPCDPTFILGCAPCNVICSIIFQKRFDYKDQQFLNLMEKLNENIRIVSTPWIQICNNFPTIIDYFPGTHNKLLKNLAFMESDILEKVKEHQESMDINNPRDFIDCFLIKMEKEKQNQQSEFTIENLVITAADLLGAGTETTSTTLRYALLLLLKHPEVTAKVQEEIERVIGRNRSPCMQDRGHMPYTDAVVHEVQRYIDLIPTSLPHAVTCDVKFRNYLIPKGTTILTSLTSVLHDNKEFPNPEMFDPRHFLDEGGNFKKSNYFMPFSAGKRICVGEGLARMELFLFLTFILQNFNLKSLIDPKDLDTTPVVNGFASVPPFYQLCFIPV
Chain of Cytochrome P450 2C9 (P11712 whole entry): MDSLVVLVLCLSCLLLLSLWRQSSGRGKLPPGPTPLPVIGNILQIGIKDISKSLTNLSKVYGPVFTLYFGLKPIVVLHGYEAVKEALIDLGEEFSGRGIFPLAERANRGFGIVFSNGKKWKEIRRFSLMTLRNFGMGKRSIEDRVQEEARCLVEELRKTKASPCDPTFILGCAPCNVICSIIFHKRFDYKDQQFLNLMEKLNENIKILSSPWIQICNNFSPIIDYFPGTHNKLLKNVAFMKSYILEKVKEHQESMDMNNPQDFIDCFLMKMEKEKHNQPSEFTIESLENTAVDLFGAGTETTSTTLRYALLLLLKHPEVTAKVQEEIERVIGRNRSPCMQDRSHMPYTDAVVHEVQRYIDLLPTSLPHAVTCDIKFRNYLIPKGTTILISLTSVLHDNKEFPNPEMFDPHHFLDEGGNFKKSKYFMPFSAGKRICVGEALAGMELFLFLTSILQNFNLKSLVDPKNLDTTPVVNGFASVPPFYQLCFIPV

O=C(NCCCN1CCN(c2cccc(Cl)c2)CC1)C1CCC(=O)N1Cc1ccccc1Cl (stereo not given)
EC50 [1]: > 112 µM (not active) | EC50 [2]: > 112 µM (not active) | EC50 [3]: 2.99 µM (active) | AC50 (Cytochrome P450 2C19): 10 µM (inconclusive) | AC50 (Cytochrome P450 1A2): 0.00631 µM (inconclusive) | AC50 (Cytochrome P450 2C9): 15.8 µM (inconclusive)

COc1ccc(F)cc1S(=O)(=O)Nc1cccnc1
IC50 [4]: > 100 µM (not active)

CSc1ncc(Cl)c(C(=O)C(C#N)c2nc(O)c3cc(C)cc(C)c3n2)n1 (stereo not given)
EC50 [5]: 18.3 µM (active) | EC50 [6]: 2.48 µM (active)

Cc1cc(OCCn2ccnc2)cc(C)c1Cl
EC50 [7]: 3.76 µM (active)

O=C1C(Cl)=C(N2CCN(c3ccccc3)CC2)C(=O)N1c1cccc(C(F)(F)F)c1
IC50 [4]: > 50 µM (inconclusive)

CC(C)(C)[C@H]1C=C(C(=O)NCc2ccccc2)O[C@@H](OCc2ccc(CO)cc2)C1
EC50 [7]: 9.44 µM (active)

Cc1cc(C=C2C(=O)N(C)C(=S)N(C)C2=O)c(C)n1-c1cccnc1
IC50 [8]: > 50 µM (not active)

CCOc1ccc(CN2CCNC(=O)C2CC(=O)NCCc2ccccn2)cc1 (stereo not given)
EC50 [7]: 6.68 µM (active)

CCC(C)C1=CC(=Nc2c(C)n(C)n(-c3ccccc3)c2=O)C=C(C(C)CC)C1=O (stereo not given)
IC50 [8]: > 50 µM (not active)

O=C(O)c1ccc(N/N=C/c2ccc(-c3cccc(Cl)c3)o2)cc1
EC50 [9]: 3.86 µM (active) | EC50 (Streptococcus): 10.7 µM (active) | EC50 [3]: 4.73 µM (active) | AC50 [10]: 8 µM (active)

c1ccc(Cn2nnnc2C(c2cccnc2)N2CCN(C3CCCCC3)CC2)cc1 (stereo not given)
EC50 [7]: 1.68 µM (active)

Cc1cccc(N2C(=O)C(Cl)=C(N3CCN(c4ccccc4)CC3)C2=O)c1
IC50 [4]: > 50 µM (inconclusive)

COc1ccc(S(=O)(=O)N(C)C[C@H]2Oc3ccc(NC(=O)Nc4ccc(C(F)(F)F)cc4)cc3CC(=O)N([C@H](C)CO)C[C@@H]2C)cc1
AC50 (Paired box protein Pax-8): 11.9 µM (active)

NS(=O)(=O)c1ccc(/N=C/C2=C(O)c3ccccc3C2=O)cc1
IC50 [4]: > 100 µM (not active)

Cc1cc(C)c(C)c(OCCCN(C)C)c1
EC50 [7]: 0.168 µM (active)

Cc1cc(NC(=O)c2cccc(Oc3ccccc3)c2)[nH]n1
EC50 [5]: > 150 µM (inactive) | EC50 [6]: 1.87 µM (active)

C[C@@H]1CCCCO[C@@H](CN(C)C(=O)Nc2ccccc2)[C@H](C)CN([C@H](C)CO)C(=O)c2cc(NC(=O)Nc3ccc(C(F)(F)F)cc3)ccc2O1
AC50 (Paired box protein Pax-8): 3.07 µM (active)

CC1(C)CC(=O)c2cc(C(=O)NCc3ccco3)c(=O)n(-c3ccc(Cl)cc3)c2C1
EC50 [7]: 6.68 µM (active)

Oc1cc(-c2ccccc2)c2ccccc2c1
IC50 [8]: 14.4 µM (active) | EC50 [11]: 40.1 µM (active)

O=C(NCCO)c1cc(-c2cc(F)c(F)cc2F)n[nH]1
IC50 [4]: > 10 µM (inconclusive)

CC1CCCN(C(=O)c2ccc(S(=O)(=O)N3CCC(c4nc5ccccc5s4)CC3)cc2)C1 (stereo not given)
AC50 [12]: 5.85 µM (active)

COc1ccc(N(C)C(=O)Nc2ccc3nsnc3c2)cc1
IC50 [8]: > 50 µM (not active)

Cc1ccc(S(=O)(=O)Nc2cccc(C(=O)NCC(c3ccccc3)N(C)C)c2)cc1F (stereo not given)
EC50 [3]: 0.267 µM (active) | EC50 [7]: 5.31 µM (active)

CC1CC(C)(C)N(C(=O)CN2C(=O)c3ccccc3C2=O)c2ccccc21 (stereo not given)
EC50 [3]: 4.22 µM (active) | EC50 [7]: 5.96 µM (active) | EC50 [13]: 6.44 µM (active)

O=C1C(Cl)=C(N2CCN(c3ncccn3)CC2)C(=O)N1c1ccc(C(F)(F)F)cc1
IC50 [4]: > 50 µM (inconclusive)

COc1ccc(NC(=O)Nc2ccc3c(c2)CC(=O)N([C@@H](C)CO)C[C@@H](C)[C@@H](CN(C)Cc2ccc(Oc4ccccc4)cc2)O3)cc1
AC50 (Paired box protein Pax-8): 25.3 µM (active)
